Reference: patent publication US20220381657A1, “METHOD FOR PREPARING BIOLOGICAL MATERIAL HAVING EXCELLENT LIGHT-TRANSMITTING PROPERTY” (RIKEN, priority 2016, published 2022)
“Also recorded” adds a separate entry of the source. Where two headings read alike, the source gives them in different places.

Columns and labels:
mouse spleen = test: Decoloring of mouse spleen (OD420 of supernatant, transmissive image); settings: 10 wt % solution, 37° C. overnight
mouse brain = test: Swelling and clearing of delipidated mouse brain; settings: CUBIC-1 delipidated brain, shaken 3 days
mouse hemisphere = test: Delipidation and clearing of mouse hemisphere (transmittance, phospholipid and cholesterol content)
Experimental: Subsequently, the delipidation efficiency of the series of compounds in mammalian tissue was examined. […] The transmittance of the brain tissue was measured, and then the brain tissue was washed with PBS and was disrupted. […] It was thus shown that the above basic chemicals and some neutral chemicals were better than the detergents from the viewpoint of permeability with respect to tissue. […] Subsequently, the mouse hemisphere was subjected to refractive index adjustment with CUBIC-2A. […] Accordingly, #0414 (N-butyldiethanolamine) was selected as a highly-efficient delipidation chemical.

[1] = for 400 nm: OD at 400 nm of the chemical
[2] = system: fixed brain tissue suspension; test: 1st delipidation assay: solubilization of fixed brain tissue suspension, turbidity at 600 nm; parameters: species or system mice; settings: Table 1; 10 wt % chemical, fixed mouse brain suspension, 37° C. overnight; PBS = 1.000
Experimental: Specifically, brains taken out of mice were sheared with a utility knife and then were disrupted by ultrasonication. To each of the resultant suspensions, an equal volume of 8% PFA solution was added to perform fixation at 4° C. for 1 hour. The resultant mixture was centrifuged to remove the supernatant, and the fixed brain tissue was washed with PBS for 3 times. PBS was added so as to obtain 2 mL of a fixed brain tissue suspension per brain. The fixed brain tissue suspension was diluted by 3.5 folds. To 20 μL of the resultant suspension, 130 μL of each 10 wt % chemical was added and was shaken at 37° C. overnight. Thus obtained mixed solutions were subjected to absorbance (turbidity) measurement at 600 nm. It is expected that a chemical solution which reduces the turbidity of a fixed brain suspension allows reducing light scattering by solubilizing lipids, which act as a scattering factor, in the brain tissue.

Serius = settings: relative fluorescence
bovine coagulated blood = test: Decoloring screening: heme eluted from bovine coagulated blood (OD420-OD700); settings: decolorization; for 700 nm calibrated 420 nm Average: OD420 calibrated by OD700; for integrated value 500-700 nm Average: integrated absorbance 500-700 nm
EGFP = EGFP (Aequorea victoria, UniProt P42212, F64L/H231L/S65T); type: biochemical; settings: for retention of fluorescence of a fluorescent protein: stated in the description; for 2nd quenching assay EGFP fluorescence: Table 3
Experimental: (FIG. 7). […] A mouse hemisphere was treated with use of each 10 wt % chemical solution at 37° C. for 3 days, and was washed with PBS. Subsequently, the mouse hemisphere was subjected to refractive index adjustment with CUBIC-2A.

[3] = Refractive index of high-concentration aqueous solution; type: physicochemical; settings: Table 3; chemical conc. 70 wt %
Text: (§1) The refractive index of an aqueous solution is commonly known to increase in a solute concentration-dependent manner, and the refractive index of a reagent per unit weight of the reagent varies among individual reagents. Accordingly, two properties are required in order to prepare a high refractive index aqueous solution: (1) an extremely high water-solubility and (2) a […] which allows achieving a high refractive index in a low-concentration aqueous solution.

[4] = 1st RI evaluation assay: refractive index at 589 nm of 10 wt % aqueous solution; type: physicochemical; settings: Table 3
Text: as §1

SMILES	Fluorescence quench Average (Serius)	700 nm calibrated 420 nm Average (bovine coagulated blood)	integrated value 500-700 nm Average (bovine coagulated blood)	400 nm [1]	pH ([…])	retention of fluorescence of a fluorescent protein (EGFP)	OD400 ([1]; Table 3)	pH (Table 3)	other results
Cn1ccnc1 [1-methylimidazole]	–	–	–	–	–	–	–	–	mouse spleen decoloring activity (mouse spleen): equivalent decoloring activity
c1c[nH]cn1 [#1352, imidazole]	–	–	–	–	–	–	–	–	swelling of delipidated mouse brain (mouse brain): high-degree of swelling
CCCCC(O)CO (stereo not drawn) [#1051, 1,2-Hexanediol]	–	–	–	–	–	–	–	–	degree of delipidation and clearing of mouse hemisphere (mouse hemisphere; 10 wt % chemical, 37° C., 3 days, then CUBIC-2A, compared with detergents #1035, #1455, #1460, Triton X-100): higher degrees of delipidation and clearing; OD400 ([1]; Table 1): 0.048; 1st delipidation assay Relative OD600 [2]: 0.300; pH (Table 1): 9.3
CCn1ccnc1 [#0938, 1-ethylimidazole]	0.80	6.19	3.41	0.053	12.1	allows fluorescence of a fluorescent protein to be retained	–	–	mouse spleen decoloring activity (mouse spleen): highest
CCCCN(CCO)CCO [#0414, N-Butyldiethanolamine]	0.70	1.30	1.45	0.05	12.7	–	–	–	organ transparency (mouse hemisphere; #0414 versus #0389, basic chemicals): superiority; OD400 ([1]; Table 1): 0.05; 1st delipidation assay Relative OD600 [2]: 0.261; pH (Table 1): 12.7
OCCNCc1ccccc1 [#0389, N-Benzyl- ethanolamine]	0.57	2.73	2.42	0.063	10.9	allowing retention of fluorescence of a fluorescent protein	0.063	10.9	RI [3]: 1.4814; 2nd quenching assay EGFP fluorescence (EGFP): quench free
CNC(=S)NC [#0637, 1,3-Dimethyl-thiourea]	–	–	–	–	–	–	0.049	6.8	1st RI evaluation assay RI of 10% chemical [4]: 1.3555
CNC(=O)c1cccnc1 [#1283, N-Methyl- nicotinamide]	0.71	2.98	2.81	0.063	10.7	allowing retention of fluorescence of a fluorescent protein; also recorded: allows fluorescence of a fluorescent protein to be retained	0.063	10.7	RI [3]: 1.4902; 2nd quenching assay EGFP fluorescence (EGFP): quench free
